Assay results taken from patent US8114843B2, “Photoreactive regulator of protein function and methods of use thereof” (The Regents of the University of California, priority 2005, dated 2012).

Assays:
[1] = test system: transient inward current (voltage-gated Na+ and Ca2+ currents) in neurons; experiment: Voltage-clamp of transient inward current in PAL-treated neurons; type: cell-based, rat; details: Cs+ in the patch pipette
Protocol: (§1) Electrophysiological recording. Recordings from HEK293 and hippocampal neurons were made in the whole-cell patch clamp configuration using a PC-501A amplifier (Warner Instruments). Pulse protocols and measurements were carried out with pCLAMP and a Digidata 1322 interface (Axon Instruments). For voltage-clamp experiment, cells were held at −70 mV. Data was recorded at 20 kHz and filtered at 2 kHz. […]

Purkinje neurons = experiment: Loose-patch extracellular recording in cerebellar slices; type: cell-based, rat; details: 200 μM for 10 minutes; full-field 360 nm light; n=5
Protocol: Brain Slice Preparation. Parasagittal cerebellar slices were prepared using standard techniques approved by the UCLA Animal Care Committee. […] PAL attachment. […] For cerebellar slices, neuronal cell bodies were visualized using an upright microscope with a 40× water immersion lens and equipped with an infrared-DIC enhancement. Loose-patch extracellular recordings were performed using an Axopatch 200B amplifier (Axon Instruments). Electrophysiological recordings were filtered at 1 KHz and digitized at 2-4 KHz. Pipettes were typically 1.4-2.0 MΩ for recordings from PNs and 3.0-3.5 MΩ for interneurons and filled with aCSF. […] All recordings were performed at room temperature. […] Excitation filters were changed using a lambda 10-2 filter changer (Sutter Instruments) controlled via pCLAMP software.

[2] = test system: voltage-gated outward current (endogenous K+ channels) in cultured hippocampal neurons; experiment: Photocontrol of K+ current in cultured hippocampal neurons; type: cell-based, rat; details: 200 μM, 15 min in the dark
Protocol: Hippocampal neurons were prepared from neonatal Sprague-Dawley rats according to standard procedures (Goslin) and grown on poly-L-lysine coated coverslips in MEM supplemented with 5% fetal bovine serum, B27 (Invitrogen), glutamine and serum extender (BD Biosciences). Animal care and experimental protocols were approved by the UC Berkeley Animal Care and Use Committee. Recordings were performed 9-16 days after plating. The Shaker construct also contains an N-terminal deletion (Δ6-46) to minimize fast inactivation.
(§2) PAL attachment. HEK293 and hippocampal cells were rinsed in extracellular solution containing in mM: 138 NaCl, 1.5 KCl, 1.2 MgCl2, 2.5 CaCl2, 5 HEPES, 10 glucose and incubated at 37° C. in the dark with 200-250 μM PAL for 15 minutes. For slices, AAQ was diluted to 200 μM in aCSF and treatment was performed in the dark at room temperature for 10 minutes.
as §1

Kv1.2 = target: T1, Kv1.2 (Homo sapiens, UniProt P16389); experiment: PAL photoswitching, whole-cell patch clamp in HEK cells; type: cell-based
T1 construct: expressed in transfected cells; host or cells: HEK cells
Protocol: (§3) Cell culture and transfection. HEK293 cells were grown in DMEM containing 5% fetal bovine serum, at 37° C., 7% CO2. For electrophysiology, cells were plated at 12×10^5 cells/cm^2 on poly-L-lysine coated coverslips and transfected using the calcium phosphate method. Recordings were performed 24-36 hours after transfection.
as §2
(§4) Electrophysiological recording. Recordings from HEK293 and hippocampal neurons were made in the whole-cell patch clamp configuration using a PC-501A amplifier (Warner Instruments). Pulse protocols and measurements were carried out with pCLAMP and a Digidata 1322 interface (Axon Instruments). For voltage-clamp experiment, cells were held at −70 mV. Data was recorded at 20 kHz and filtered at 2 kHz. Recording pipettes with 2.5-4 MΩ resistance were filled with intracellular solution containing in mM: 10 NaCl, 135 K-gluconate, 10 HEPES, 2 MgCl2, 2 MgATP, 1 EGTA, pH 7.4.
(§5) Illumination was provided using a xenon lamp (Sutter Instruments) with narrow band pass filters (380 BP10 for UV and 500 BP5 for visible light respectively). Excitation filters were changed using a lambda 10-2 filter changer (Sutter Instruments) controlled via pCLAMP software.
(§6) Percent photoswitching was defined as the difference between current in UV and visible light divided by current in UV. All data shown in bar graphs are averages±standard error of the mean.

Kv3.1 = target: T2, Kv3.1 (Homo sapiens, UniProt P48547); experiment: as above; type: cell-based
T2 construct: expressed in transfected cells; host or cells: HEK cells
T2 sequence (P48547 1-511): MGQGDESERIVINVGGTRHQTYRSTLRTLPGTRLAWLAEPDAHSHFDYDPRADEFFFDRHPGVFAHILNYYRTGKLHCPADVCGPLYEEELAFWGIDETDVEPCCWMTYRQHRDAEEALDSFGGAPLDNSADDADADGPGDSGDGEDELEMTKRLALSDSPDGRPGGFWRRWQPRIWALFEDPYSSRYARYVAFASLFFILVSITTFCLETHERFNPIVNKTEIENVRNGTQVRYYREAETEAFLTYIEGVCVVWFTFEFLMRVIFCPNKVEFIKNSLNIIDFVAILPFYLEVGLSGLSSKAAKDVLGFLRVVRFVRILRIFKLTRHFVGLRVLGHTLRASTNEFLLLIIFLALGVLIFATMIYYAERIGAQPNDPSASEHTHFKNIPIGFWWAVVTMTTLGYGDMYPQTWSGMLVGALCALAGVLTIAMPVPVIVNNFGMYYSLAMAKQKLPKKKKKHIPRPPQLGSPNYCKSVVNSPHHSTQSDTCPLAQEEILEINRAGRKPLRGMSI
Protocol: as §3, §2, §4, §5, §6

[3] = test system: cultured hippocampal neurons; experiment: Live/Dead assay after PAL treatment; type: cell-based; details: 200 μM
From the text: Live/Dead assay. After PAL treatment, hippocampal neurons were processed for the live dead assay (Molecular Probes) according to the manufacturer's instructions. Cells were counted in 4-8 fields for each treatment condition.

T1 sequence (P16389 whole entry): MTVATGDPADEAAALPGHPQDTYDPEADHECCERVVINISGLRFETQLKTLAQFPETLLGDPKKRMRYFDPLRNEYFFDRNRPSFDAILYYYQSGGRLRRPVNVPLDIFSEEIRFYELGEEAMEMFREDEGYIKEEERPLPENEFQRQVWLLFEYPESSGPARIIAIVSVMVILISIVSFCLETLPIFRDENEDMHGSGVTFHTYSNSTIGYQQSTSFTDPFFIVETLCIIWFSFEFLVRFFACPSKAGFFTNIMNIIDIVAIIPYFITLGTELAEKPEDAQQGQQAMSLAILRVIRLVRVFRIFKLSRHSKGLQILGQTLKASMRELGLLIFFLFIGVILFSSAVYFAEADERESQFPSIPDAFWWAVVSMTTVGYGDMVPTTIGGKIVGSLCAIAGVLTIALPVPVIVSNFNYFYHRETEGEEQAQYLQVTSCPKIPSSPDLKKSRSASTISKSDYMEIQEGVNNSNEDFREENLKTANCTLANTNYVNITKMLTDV

C=CC(=O)Nc1ccc(/N=N/c2ccc(NC(=O)C[N+](CC)(CC)CC)cc2)cc1 [AAQ]
light-sensitivity of transient inward current [1]: does not become light-sensitive
increase in firing frequency (Purkinje neurons): 42±12%
percent of the outward current that could be photoswitched [2]: 63±8%
light-sensitivity imparted on channel (Kv1.2): imparted light-sensitivity
light-sensitivity imparted on channel (Kv3.1): imparted light-sensitivity
death of neurons ([3]; 15 min): ~10%
loss of neurons ([3]; 60 min): ~15%
